This note sets out measurements from patent publication US8003649B2 (AstraZeneca AB, priority 2007, dated 2011).

One assay has as its target T1, Androgen Receptor (AR) (Homo sapiens, UniProt P10275, T878A).
T1 construct: cell based immuno-fluorescence assay using the LNCaP prostate epithelial cell line; endogenous in cells; host or cells: LNCaP clone FGC (ATCC CRL-1740)
T1 sequence (P10275 1-920 T878A): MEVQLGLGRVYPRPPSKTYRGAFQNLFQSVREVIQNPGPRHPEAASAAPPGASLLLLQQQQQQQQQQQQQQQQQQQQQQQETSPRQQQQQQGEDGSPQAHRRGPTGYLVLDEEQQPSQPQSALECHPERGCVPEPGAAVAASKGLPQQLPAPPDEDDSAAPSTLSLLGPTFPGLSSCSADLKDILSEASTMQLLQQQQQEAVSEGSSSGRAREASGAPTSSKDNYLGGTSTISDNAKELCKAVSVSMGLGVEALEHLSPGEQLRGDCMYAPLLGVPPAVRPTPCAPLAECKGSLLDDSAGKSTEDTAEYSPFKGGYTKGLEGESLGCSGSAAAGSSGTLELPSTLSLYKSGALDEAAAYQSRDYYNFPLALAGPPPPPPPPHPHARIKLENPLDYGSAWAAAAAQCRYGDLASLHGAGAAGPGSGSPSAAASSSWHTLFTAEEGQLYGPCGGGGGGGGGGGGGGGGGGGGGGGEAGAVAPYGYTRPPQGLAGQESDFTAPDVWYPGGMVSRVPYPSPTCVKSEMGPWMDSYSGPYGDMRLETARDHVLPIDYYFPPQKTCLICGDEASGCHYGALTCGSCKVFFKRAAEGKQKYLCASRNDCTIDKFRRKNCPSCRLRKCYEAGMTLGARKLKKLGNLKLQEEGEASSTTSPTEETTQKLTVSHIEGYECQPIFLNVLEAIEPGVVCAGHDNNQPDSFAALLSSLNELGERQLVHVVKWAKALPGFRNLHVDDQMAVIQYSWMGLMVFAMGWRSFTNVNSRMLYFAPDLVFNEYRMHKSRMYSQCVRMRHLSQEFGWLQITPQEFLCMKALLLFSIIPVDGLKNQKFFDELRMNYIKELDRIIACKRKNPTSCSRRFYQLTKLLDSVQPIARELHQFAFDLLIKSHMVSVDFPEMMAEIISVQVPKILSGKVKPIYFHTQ
In words: LNCaP Androgen Receptor Down-regulation Cell Assay (immunofluorescence end point). Particulars: LNCaP prostate carcinoma cells, compound incubation 20-22 hours, 50% reduction of the AR signal; read-out: Androgen Receptor Down-regulation Assay (a) IC50/μM. The class given is cell-based. The method in brief: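 AR loss reported as IC50 from curve fits of fluorescence dose-response data, with AR immunostained and read by laser-scanning cytometry. Compound exposure was 20-22 h at 37° C in LNCaP cells grown in 5% charcoal-stripped FBS and plated overnight beforehand.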

The next assay deals with T2, isolated rat AR-LBD (Rattus norvegicus, UniProt P15207).
T2 construct: purchased Invitrogen PV4293
T2 sequence (P15207 651-882 limits assumed): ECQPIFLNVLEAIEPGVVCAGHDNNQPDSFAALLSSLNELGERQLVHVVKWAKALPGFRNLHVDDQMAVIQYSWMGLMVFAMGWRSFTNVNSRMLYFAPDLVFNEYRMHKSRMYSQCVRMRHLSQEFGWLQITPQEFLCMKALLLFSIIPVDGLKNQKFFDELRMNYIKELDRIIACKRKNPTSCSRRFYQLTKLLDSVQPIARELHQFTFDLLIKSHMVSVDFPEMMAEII
In words: Androgen Receptor Ligand Binding Domain competitive binding assay, Fluorescence Polarisation (PolarScreen). Particulars: 50% reduction in tracer compound binding to AR-LBD; read-out: Androgen Receptor FP Ligand-Binding Assay IC50/μM. The procedure:
b) Androgen Receptor—Ligand Binding Domain Competitive Binding Assay
(§1) The ability of compounds to bind to isolated Androgen Receptor Ligand binding domain (AR-LBD) was assessed in competition assays using either a Fluorescence Polarisation (FP) or a LanthaScreen™ Time-Resolved Fluorescence Resonance Energy Transfer (TR-FRET) detection end-point.
For the FP test, an assay test kit was purchased from Invitrogen and used to measure compound binding to the isolated rat AR-LBD which shares 100% sequence identity to the human AR-LBD. The Invitrogen PolarScreen™ Androgen Receptor Competitor Assay Red (Product Code No. PV4293), is a fluorescence polarisation (FP)-based competition assay which measures if test compound can displace a fluorescently-labelled tracer compound. If the test compound binds to the AR-LBD it will prevent the formation of the receptor/tracer complex, which will result in a low polarisation value. […] The assay was performed as essentially described in the Invitrogen method with the exception that the final assay volume was 12 μl and this required an appropriate low volume black 384 well microtitre plate. Compounds were dosed directly from a compound source microplate containing serially diluted compound (4 wells containing 10 mM, […], 1 μM and 10 nM final compound respectively) to an assay microplate using the Labcyte Echo 550. The Echo 550 is a liquid handler that uses acoustic technology to perform direct microplate-to-microplate transfers of DMSO compound solutions and the system can be programmed to transfer multiple small nL volumes of compound from the different source plate wells to give the desired serial dilution of compound in the assay which is then back-filled to normalise the DMSO concentration across the dilution range. FP dose response data obtained with each compound was exported into a suitable software package (such as Origin) to perform curve fitting analysis. Competitive AR binding was expressed as an IC50 value. This was determined by calculation of the concentration of compound that was required to give a 50% reduction in tracer compound binding to AR-LBD.
For orientation: Polarisation of emitted light reports the rotation of a fluorescent probe.

Another assay concerns the target T3, rat GST-tagged AR-LBD (Rattus norvegicus, UniProt P15207).
T3 construct: purchased Invitrogen
T3 sequence (P15207 651-882 limits assumed): T2 sequence (P15207 651-882 limits assumed)
As to the kind of experiment: LanthaScreen TR-FRET AR Binding Assay. The following applies: n = 2; 12-point concentration response up to 100 μM. The procedure:
as §1
For LanthaScreen™ TR-FRET, a suitable fluorophore (Product code PV4294) and rat GST-tagged AR-LBD were purchased from Invitrogen and used to measure compound binding. The assay principle is that AR-LBD is added to a fluorescent ligand to form a receptor/fluorophore complex. A terbium-labelled anti-GST antibody is used to indirectly label the receptor by binding to a GST tag, and competitive binding is detected by a test compounds' ability to displace the fluorescent ligand resulting in a loss of TR-FRET signal between the Tb-anti-GST antibody and the tracer. The assay was performed as follows with all reagent additions carried out using the Thermo Scientific Matrix PlateMate:— • 1. […]
Compounds were dosed directly from a compound source microplate containing serially diluted compound (4 wells containing 10 mM, 0.1 mM, 1 μM and 10 nM final compound respectively) to an assay microplate using the Labcyte Echo 550. […] Competitive AR binding was expressed as an IC50 value. This was determined by calculation of the concentration of compound that was required to give a 50% reduction in tracer compound binding to AR-LBD.
Background: TR-FRET usually uses a lanthanide donor and a delayed reading to cut background.

Structures are written as SMILES. Some results are limits rather than exact numbers.

Take `FC(F)(F)c1ccccc1CN1CCCN(c2ccc3nnc(C(F)(F)F)n3n2)CC1` [Example 174, 3-(trifluoromethyl)-6-[4-[[2-(trifluoromethyl)phenyl]methyl]-1,4-diazepan-1-yl]-[1,2,4]triazolo[4,3-b]pyridazine]: the DC50 at Androgen Receptor (AR) was 0.94 µM. The IC50 at isolated rat AR-LBD was found to be 16.3 µM. For the compound `Cc1ccccc1CN1CCCN(c2ccc3nnc(C(F)(F)F)n3n2)CC1` [Example 183, 6-[4-[(2-methylphenyl)methyl]-1,4-diazepan-1-yl]-3-(trifluoromethyl)-[1,2,4]triazolo[4,3-b]pyridazine], the IC50 at isolated rat AR-LBD is 14.4 µM. Regarding `FC(F)(F)Cc1nnc2ccc(N3CCN(C(c4ccccc4)c4ccccc4)CC3)nn12` [Example 4, 6-(4-benzhydrylpiperazin-1-yl)-3-(2,2,2-trifluoroethyl)-[1,2,4]triazolo[4,3-b]pyridazine], at Androgen Receptor (AR), the DC50 was 2.5 µM. For the same compound, the IC50 at isolated rat AR-LBD is 20.2 µM. For `FC(F)(F)c1nnc2ccc(N3CC4CC3CN4Cc3ccccc3)nn12` (centres unmarked) [Example 41, 6-(5-benzyl-2,5-diazabicyclo[2.2.1]heptan-2-yl)-3-(trifluoromethyl)-[1,2,4]triazolo[4,3-b]pyridazine], the IC50 at isolated rat AR-LBD was 19.6 µM. For the compound `CS(=O)(=O)c1ccc(CN2CCCN(c3ccc4nnc(C(F)(F)F)n4n3)CC2)cc1` [Example 166, 6-[4-[(4-methylsulfonylphenyl)methyl]-1,4-diazepan-1-yl]-3-(trifluoromethyl)-[1,2,4]triazolo[4,3-b]pyridazine], on Androgen Receptor (AR), the DC50 was found to be 0.93 µM. Also, at isolated rat AR-LBD, the IC50 turned out to be 6.09 µM. As to `OC1(c2cccnc2)CCN(c2ccc3nnc(C(F)(F)F)n3n2)CC1` [Example 511, 4-pyridin-3-yl-1-[3-(trifluoromethyl)[1,2,4]triazolo[4,3-b]pyridazin-6-yl]piperidin-4-ol], on rat GST-tagged AR-LBD, the IC50 was > 100 µM. Turning to `Fc1cc(Cl)cc(CN2CCN(c3ccc4nnc(C(F)(F)F)n4n3)CC2)c1` [Example 759], the DC50 on Androgen Receptor (AR) worked out at 3.9 µM. With `CN1CCC(NC(=O)c2cccc(C3CCN(c4ccc5nnc(C(F)(F)F)n5n4)CC3)c2)CC1` [Example 651], on Androgen Receptor (AR), the DC50 is 1.9 µM. For `N#Cc1cccc(CN2CCCN(c3ccc4nnc(C(F)(F)F)n4n3)CC2)c1` [Example 171, 3-[[4-[3-(trifluoromethyl)-[1,2,4]triazolo[4,3-b]pyridazin-6-yl]-1,4-diazepan-1-yl]methyl]benzonitrile], the DC50 at Androgen Receptor (AR) was 0.62 µM.

For the compound `O=C(NCCN1CCCC1)c1cccc(C2CCN(c3ccc4nnc(C(F)(F)F)n4n3)CC2)c1` [Example 644], the DC50 on Androgen Receptor (AR) worked out at 1.5 µM. Consider `N#CCOc1ccc(CN2CCN(c3ccc4nnc(C(F)(F)F)n4n3)CC2)cc1` [Example 154, 2-[4-[[4-[3-(trifluoromethyl)-[1,2,4]triazolo[4,3-b]pyridazin-6-yl]piperazin-1-yl]methyl]phenoxy]acetonitrile], for which, at Androgen Receptor (AR), the DC50 stood at 1.6 µM. On the same count and under the same terms, then `FC(F)(F)c1nnc2ccc(N3CCN(Cc4ccc(Br)cc4)CC3)nn12` [Example 127, 6-[4-[(4-bromophenyl)methyl]piperazin-1-yl]-3-(trifluoromethyl)-[1,2,4]triazolo[4,3-b]pyridazine], with 1.5 µM; and `CC(C)(C)OC(=O)N1[C@@H]2CC[C@H]1CN(c1ccc3nnc(C(F)(F)F)n3n1)C2` [Example 35, tert-butyl (1S,5R)-3-[3-(trifluoromethyl)-[1,2,4]triazolo[4,3-b]pyridazin-6-yl]-3,8-diazabicyclo[3.2.1]octane-8-carboxylate], with 3 µM. As to `Fc1ncc(Br)cc1CN1CC2CN(c3ccc4nnc(C(F)(F)F)n4n3)CC2C1` (centres unmarked) [Example 795], the DC50 at Androgen Receptor (AR) was determined as 2.4 µM. For `CC1CN(Cc2ccccc2)CCN1c1ccc2nnc(C(F)(F)Cl)n2n1` (centres unmarked) [Example 352, 6-(4-benzyl-2-methylpiperazin-1-yl)-3-[chloro(difluoro)methyl][1,2,4]triazolo[4,3-b]pyridazine], at Androgen Receptor (AR), the DC50 was 0.57 µM. As to `Cn1nccc1CCOc1ccc(C2CCN(c3ccc4nnc(C(F)(F)F)n4n3)CC2)cc1` [Example 513, 6-[4-[4-[2-(1-methyl-1H-pyrazol-5-yl)ethoxy]phenyl]piperidin-1-yl]-3-(trifluoromethyl)[1,2,4]triazolo[4,3-b]pyridazine], the DC50 at Androgen Receptor (AR) is 0.24 µM. The IC50 on rat GST-tagged AR-LBD turned out to be 1.3 µM. Turning to `Cc1cccc(C)c1N1CCN(c2ccc3nnc(C(F)(F)F)n3n2)CC1` [Example 16, 6-[4-(2,6-dimethylphenyl)piperazin-1-yl]-3-(trifluoromethyl)-[1,2,4]triazolo[4,3-b]pyridazine], at Androgen Receptor (AR), the DC50 was found to be 0.77 µM. Still for that read-out and setting: then `O=C(NCCO)c1cccc(OC2CCN(c3ccc4nnc(C(F)(F)F)n4n3)CC2)c1` [Example 697], with > 22 µM. Take `CS(=O)(=O)Oc1ccc(CN2CCN(c3ccc4nnc(C(F)(F)F)n4n3)CC2)cc1` [Example 152, [4-[[4-[3-(trifluoromethyl)-[1,2,4]triazolo[4,3-b]pyridazin-6-yl]piperazin-1-yl]methyl]phenyl]methanesulfonate]: the DC50 at Androgen Receptor (AR) was 6.7 µM.
